Source: patent US5358959A, “Methods for treating arteriosclerosis” (President and Fellows of Harvard University, priority 1993, dated 1994)
Where two headings read alike, the source gives them in different places.

Legend:
[1] = test system: human umbilical vein (HUVEC); experiment: Cell growth (flask surface covered by the cell monolayer), human umbilical vein cells; assay type: cell-based; conditions: CLT 10 μM; 48 hs; DME 10% fetal calf serum; control 90±2%
Protocol: (§1) Measurement of cell density in culture plates: Cells of a specific test cell line are seeded at precisely the same low density in culture plates and incubated for approximately 12 hours in DME 10% serum, or other culture medium depending on the cell line tested. […] Alternatively, the cells can be detached from the plate by incubation with trypsin (Sigma, Co.) […] in ethylene diaminotetraacetic acid (ECTA; Sigma, Co); then the cells are counted in an hemocytometer chamber (Fisher, Pittsburgh, Pa.).
(§2) After 48 hs cell growth was assessed by optic miscroscopy calculating the surface of the culture flask covered by the cell monolayer.

[2] = test system: Swiss 3T3; experiment: Proliferative response of quiescent 3T3 cells to conditioned media of MAC treated endothelial cells; assay type: cell-based, murine; conditions: 10 μM CLT; FIG. 5
Protocol: (§3) When endothelial cells (EC) in culture (both BAEC and HUVEC) are treated with terminal complement components to form the MAC (membrane attack complex of complement), they release into the culture medium a potent mitogenic activity that stimulates the proliferation of quiescent cells used as indicators of the mitogens. Both, quiescent Swiss 3T3 and vascular smooth muscle cells are stimulated by the mitogens released form EC in response to the MAC (FIG. 5; Halperin et al. unpublished observation). Moreover, immunoprecipitation with specific antibodies has documented that both PDGF and bFGF released from the EC contribute in approximately equal proportion to the mitogenic activity induced by the MAC (data not shown).

[3] = test system: Bovine endothelial (BAEC); experiment: Cell growth (flask surface covered by the cell monolayer), bovine endothelial cells; assay type: cell-based; conditions: CLT 10 μM; 48 hs; DME 10% calf serum; control 90±2%
Protocol: as §1, §2

[4] = target: T1, Ca^++ activated K channel (Homo sapiens, UniProt O15554); experiment: Inhibition of the Ca++ activated K channel of human erythrocytes (86Rb influx, K efflux); assay type: cell-based; conditions: for order of inhibitory potency, Ca++ activated 86Rb influx / inhibition of Ca++ activated 86Rb influx by other antimycotics and related compounds: human erythrocytes, FIG. 4
T1 construct: endogenous in cells; host or cells: human erythrocytes (washed red blood cells from heparinized blood)
Protocol: Preparation of Human Red Blood Cells: Blood is collected in heparinized tubes and centrifuged in a Sorvall centrifuge (RB 5B, Du Pont Instruments,Newtown, Conn.) at 5° C. for 10 minutes at 3000 g. Plasma and buffy coat are carefully removed and the cells washed four times with a washing solution containing 150 mM choline chloride (Sigma Co), 1 mM MgC12 (Sigma Co), 10 mM Tris-MOPS (Sigma, Ca), pH 7.4 at 4° C.(CWS). An aliquot of cells is then suspended in an approximately equal volume of CWS, and from this original cell suspension hematocrit (Hct) and hemoglobin (optical density at 540 nm) are determined.
Methods to Test Inhibitors of the Ca^++ Activated K: To test inhibitors of the Ca^++ activated K channel, the channel is activated using the calcium ionophore A23187 (Chalbiochem).
By Atomic Absorption Spectrometry: Washed human erythrocyte are suspended at an hematocrit =1% in CWS containing 0.150 mM CaCl2 (Sigma Co) Aliquots of 1 ml are removed at 0, 3 and 5 minutes, layered on top of 0.3 ml of the oil n-butyl phthalate (Fair Lane, N.J.) placed in an Eppendorf microtube (Fisher) and then centrifuged in a micro centrifuge for 20 seconds. At time 5.30 minutes, ionophore A23187 (1 μM final concentration) is added and samples removed and spin down through phthalate at times 6, 7, 8 and 9 minutes. The supernatant on top of the oil layer is removed and its K+ concentration is measured by atomic absorption spectrometry using a Perking Elmer model 5000 spectrometer (Perkin Elmer Corp., Norwolk, Conn.). The efflux of K+ (mmol/1 cells/h) in the absence and presence of the inhibitor is calculated from the slope of the curves relating the K+ concentration in the supernatants (mmol/1 cells) vs. time (min.).
By radioisotopic measurement of ^86 Rb influx. The incubation medium is the same but contains 2 mM KCl and 1 μCi/ml of the radioactive tracer ^86 Rb. After spinning the samples through the phthalate layer, the tubes are rapidly frozen (-80° C.) by immersion in methanol-dry ice, the tips of the tubes containing the packed red cells cut, and counted in a Packard Gamma Counter.

[5] = test system: Swiss 3T3 cells; experiment: DNA synthesis ([3H]thymidine incorporation) in normal fibroblasts; assay type: cell-based, murine
Protocol: (§4) DNA synthesis assessed by the uptake of [3H]thymidine: Cells are grown in either 48 or 96 wells plates (Costar, Cambridge, Mass.) at 10^4 and 0.8 10^3 cells per well, respectively, and grown in Dubelcco's modified Eagle's medium (DME, Gibco, Grand Island, N.Y.) supplemented with 10% heat-inactivated calf serum; they are kept at 37° C. in 5% CO2. When they reach confluence, usually between 3 and 4 days, the medium is replaced with DME 0.5% serum to make them quiescent, and mitogenesis assays are performed 24 hours later.
(§5) Quiescent cells are exposed to a mitogenic stimulus, such as 10% serum, PDGF (Sigma Co. St. Louis, Mo.), bFGF (Upstate Biotechnologies, Lake Placid, N.Y.), or other appropriate mitogen according to the cell line, and 3 hours 1 later μCi/ml of [3H]thymidine (Dupont, Billerica, Mass.) is added to the wells, and the cells maintained at 37° C./5% CO2 for additional 21 hours. Then the cells are washed 3 times with DME medium and the acid-precipitable radioactivity is extracted with cold 10% TCA (Sigma, Co). After neutralization with 0.3N NaOH (Sigma Co.), aliquots are counted in a Packard Tri-Carb Scintillation counter (Packard Instrument, Downer's Grove, Ill.).
Swiss 3T3 cells (murine fibroblast cell line): Quiescent cells were stimulated with purified growth factors (PDGF and bFGF, […]) and synthesis of DNA was assessed by the incorporation of [3H]thymidine measured 24 hours later.

[6] = test system: Rat vascular smooth muscle cells; experiment: cells; assay type: cell-based; conditions: for inhibition of DNA synthesis by other inhibitors of the Ca++ activated K channel: bFGF-stimulated
Protocol: as §4, §5
Rat vascular smooth muscle cells (murine cell line): Quiescent cells were stimulated with purified growth factors (PDGF and bFGF, […]) and synthesis of DNA was assessed by the incorporation of [3H]thymidine measured 24 hours later.
Cells were stimulated using […] bFGF. […] (FIG. 2)
Other antimycotics were tested for their inhibition of bFGF-stimulated DNA synthesis in rat vascular smooth muscle cells.

[7] = test system: vascular smooth muscle cells; experiment: Proliferative response of vascular smooth muscle cells to conditioned media of MAC treated endothelial cells; assay type: cell-based; conditions: 10 μM CLT; FIG. 5
Protocol: as §3

[8] = test system: testicular and adrenal synthesis of steroid hormones; conditions: cited from earlier work
[9] = test system: vascular smooth muscle cells; experiment: Proliferation of vascular smooth muscle cells (general statement); assay type: cell-based; conditions: for inhibition of proliferation of vascular smooth muscle cells: specific inhibitors of the Ca++ activated potassium channel
[10] = test system: endothelial cells; experiment: Proliferation of endothelial cells (general statement); assay type: cell-based; conditions: for inhibition of proliferation of endothelial cells: specific inhibitors of the Ca++ activated potassium channel
[11] = test system: cell proliferation; experiment: Cell proliferation with inhibitors of other transport systems (general statement); assay type: cell-based; conditions: inhibitors of other transport systems activated by mitogens
[12] = 60 μmol A23187/L cell and 100 μM CaCl2

Molecule: Clc1ccccc1C(c1ccccc1)(c1ccccc1)n1ccnc1 [CLT, clotrimazole]
- flask surface covered by cells [1]: less than 10%
- inhibition of proliferative response to mitogens released from EC by MAC [2]: completely inhibited
- flask surface covered by cells [3]: less than 10%
- inhibition of Ca++ activated 86Rb influx [4, 12]: markedly inhibited
- inhibition of Ca++ activated K efflux [4, 12]: markedly inhibited
- order of inhibitory potency, Ca++ activated 86Rb influx [4]: clotrimazole more than miconazole
- inhibition of PDGF stimulated DNA synthesis ([5]; 10 μM CLT, PDGF, 5 μM, 24 hours): completely inhibited
- inhibition of bFGF stimulated DNA synthesis ([5]; 10 μM CLT, bFGF, 5 μM, 24 hours): completely inhibited
- reversibility of the inhibition of DNA synthesis (toxic, non-specific effect) ([5]; removing CLT and re-stimulating with the growth factor): reversed by removing CLT
- dose response of inhibition of DNA synthesis [6]: Inhibition was dose dependent
- inhibition of DNA synthesis [6]: complete inhibition
- inhibition of PDGF stimulated DNA synthesis [6]: completely inhibited
- inhibition of bFGF stimulated DNA synthesis [6]: completely inhibited
- order of inhibitory potency, bFGF-stimulated DNA synthesis [6]: CLT more potent than ECZ
- reversibility of the inhibition of DNA synthesis (toxic, non-specific effect) [6]: reversed by removing CLT
- inhibition of bFGF-stimulated DNA synthesis ([6]; 10 µM): inhibited DNA synthesis
- inhibition at 1 µM ([6]; Rattus norvegicus, read-out: inhibition of DNA synthesis): 45%
- inhibition of proliferative response to mitogens released from EC by MAC [7]: completely inhibited

Molecule: Clc1ccc(COC(Cn2ccnc2)c2ccc(Cl)cc2Cl)cc1 (centres unmarked) [ECZ, econazole]
- order of inhibitory potency, Ca++ activated 86Rb influx [4]: both of these were more than econazole
- order of inhibitory potency, bFGF-stimulated DNA synthesis ([6]; 10 μM, FIG. 3): ECZ more potent than MCZ
- inhibition of bFGF-stimulated DNA synthesis ([6]; antimycotics at 10 μM, FIG. 3): inhibited DNA synthesis

Molecule: CC(=O)N1CCN(c2ccc(OCC3COC(Cn4ccnc4)(c4ccc(Cl)cc4Cl)O3)cc2)CC1 (centres unmarked) [Ketoconazole, ketoconazole]
- treatment of prostate cancer ([8]; by blocking steroid synthesis): effective in treating some prostate cancers
- plasma testosterone ([8]; hormonal adjuvant for prostate cancer treatment): reduces plasma testosterone to castration levels
- testicular and adrenal synthesis of steroid hormones, including testosterone ([8]; in high doses): appears to inhibit
- usefulness for inhibiting smooth muscle cell proliferation ([9]; ketoconazole, no data given): not useful
- usefulness for inhibiting endothelial cell proliferation ([10]; ketoconazole, no data given): not useful

Molecule: Clc1ccc(COC(Cn2ccnc2)c2ccc(Cl)cc2Cl)c(Cl)c1 (centres unmarked) [MCZ, miconazole]
- order of inhibitory potency, Ca++ activated 86Rb influx [4]: both of these were more than econazole
- order of inhibitory potency, bFGF-stimulated DNA synthesis ([6]; 10 μM, FIG. 3): ECZ more potent than MCZ
- inhibition of bFGF-stimulated DNA synthesis ([6]; antimycotics at 10 μM, FIG. 3): inhibited DNA synthesis

Molecule: N=C(N)NC(=O)c1nc(Cl)c(N)nc1N [amiloride]
- inhibition of cell proliferation [11]: do not inhibit cell proliferation

Molecule: OC(Cn1cncn1)(Cn1cncn1)c1ccc(F)cc1F [fluconazole]
- inhibition of Ca++ activated 86Rb influx by other antimycotics and related compounds [4]: no inhibition

Molecule: Cc1ncc([N+](=O)[O-])n1CCO [metronidazole]
- inhibition of Ca++ activated 86Rb influx by other antimycotics and related compounds [4]: only marginal

Molecule: Cc1ncc([N+](=O)[O-])n1CC(O)CCl (centres unmarked) [ornidazole]
- inhibition of Ca++ activated 86Rb influx by other antimycotics and related compounds [4]: no inhibition

Molecule: C[C@@H]1O[C@@H](O[C@H]2C[C@@H](O)[C@]3(CO)[C@H]4[C@H](O)C[C@]5(C)[C@@H](C6=CC(=O)OC6)CC[C@]5(O)[C@@H]4CC[C@]3(O)C2)[C@H](O)[C@H](O)[C@H]1O [ouabain]
- inhibition of cell proliferation [11]: do not inhibit cell proliferation

Molecule: CCS(=O)(=O)CCn1c([N+](=O)[O-])cnc1C [tinidazole]
- inhibition of Ca++ activated 86Rb influx by other antimycotics and related compounds [4]: no inhibition

Molecule: Charybdotoxin
- inhibition of DNA synthesis by other inhibitors of the Ca++ activated K channel ([6]; FIG. 3): failed to inhibit DNA synthesis
- inhibition of proliferation of vascular smooth muscle cells [9]: do not inhibit proliferation
- inhibition of proliferation of endothelial cells [10]: do not inhibit proliferation

Molecule: kaliotoxin: specific inhibitors of the Ca^++ activated potassium channel
- inhibition of DNA synthesis by other inhibitors of the Ca++ activated K channel ([6]; FIG. 3): failed to inhibit DNA synthesis
- inhibition of proliferation of vascular smooth muscle cells [9]: do not inhibit proliferation
- inhibition of proliferation of endothelial cells [10]: do not inhibit proliferation
